Source: article PMC12057046, “Elucidation of short linear motif-based interactions of the MIT and rhodanese domains of the ubiquitin-specific protease 8” (Biology Direct, 2025)

Columns and labels:
USP8 MIT domain [1] = assay: SPOT array of predicted peptides from known interactors, USP8 MIT domain; type: binding, human; details: for Percentage (%) normalized to highest intensity and corrected for background: SPOT array, GST-tagged MIT 100 µM, overnight 4 °C, chemiluminescence, highest intensity = DNAJB6; for Percentage (%): Supplementary Fig. 4B, normalized to the highest intensity and corrected for background
From the text: To further assess the SLiM-based interactions of the USP8 MIT domain, we designed a peptide array tiling 24 potential binding sites in previously reported USP8 interactors. We used SLiMSearch to search for peptides that contain shorter or longer matches to the motif (Supplementary Table S4A). […] The DNAJB6_118 - 130 peptide was predicted as a binder based on a partial DFx{2,3}R motif. The DNAJB6-USP8 interaction is supported by previous GST-pulldown experiments and colocalization of the two proteins in male mouse germ cells, and the interaction is thought to be of importance to the protein quality control to yield functional spermatozoa. In the case of the CDH1_863 - 877 peptide it was predicted as USP8 MIT ligand based on the presence of an RFxxL motif. The previous support of the CDH1-USP8 interaction is based on proximity labelling mass spectrometry, and our results thus provide evidence for a binary interaction between the two proteins and define a binding site. To confirm that the motifs used to predict the interactions were of importance for binding we designed an alanine scanning peptide SPOT array analysis of the DNAJB6_118 - 130 and the CDH1_863 - 877 peptides. […] In summary, we find that the USP8 MIT domain binds to a MIM1-like motif that can be expressed by [[…]], as well as degenerate variants thereof. […] The membranes of predicted peptides were purchased by JPT Peptide Technologies (Berlin, Germany). The membranes were incubated with blocking buffer containing 5% skim milk in TBST (50 mM Tris, 150 mM NaCl pH 7.5, 0.05% Tween-20) for two hours at room temperature. The blocked membranes were incubated with GST-tagged proteins (100 μM for MIT domain and 150 μM for the Rhodanese domain) in blocking buffer overnight at 4 °C. After rinsed with TBST the membranes were incubated with HRP-conjugated anti-GST antibody (Cytiva, RPN1236; 1:3000 dilution) in blocking buffer for 1 h at 4 °C and subsequently rinsed with TBST to remove any excess antibody. The ECL reagent (Clarity Max Western ECL substrate, 1705062, BioRad) was used for chemiluminescence read-out with the ChemiDoc Imaging system (BioRad). The images were analysed with Fiji (ImageJ2 version 2.9.0). […] used to design the peptide arrays with known interactors predicted to contain the motifs. The background signal intensity was subtracted, and the corrected signal intensities were normalized to the positive control and presented as percentage.

USP8 MIT domain [2] = assay: Proteomic peptide-phage display (ProP-PD) selection against USP8 MIT domain; type: binding, human; parameters: Confidence: scale not given here; details: for max_counts: Total NGS counts; for Confidence: calculated based on four metrics: overlapping peptides, replicated peptides, motif match, peptide counts; for Counts: fraction of NGS counts for a selection; for Promiscuity: number of baits selections where the peptide has been observed, calculated on the domain level; for Replicates: number of screens against the bait protein in which the peptide has been found; for Specificity: proportion for the current bait of the total NGS read counts of the peptide for all baits screened with this library
Description: We explored the peptide-binding of the USP8 MIT domain by using the purified GST-tagged MIT domain as bait in proteomic peptide-phage display (ProP-PD) selections and a library designed to display the predicted unstructured regions of the human proteome. The peptide-coding regions of the binding-enriched phage pools were analysed by next-generation sequencing (NGS). After filtering for high confidence ligands, ten ligands remained (Fig. 1B; Supplementary Table S1). None of the ten identified protein-protein interactions had been previously reported, based on comparison with the information available in IntAct, HIPPIE and BioGrid (February 2025). Of the USP8 interacting proteins found, the D site-binding protein (DBP), which is a clock-controlled transcription factor, appears as an interesting ligand as USP8 has been reported to be involved in controlling the circadian rhythm. Also, the CCDC88A-encoded protein Girdin is an interactor of potential biological relevance as it is a scaffolding protein involved in the EGFR pathway which USP8 is known to regulate. At the motif level, there was no shared consensus motif among the ten peptide ligands. However, by manual inspection we noticed that four of the peptides contained a shared [LI]xxR[IY]xxL sequence, which appears to be a variation of the [DE]xxLxxRLxxL[KR] MIM1 motif described in the Eukaryotic Linear Motif resource (ELM) (Fig. 1B). We performed a SPOT array alanine scanning analysis in which peptides are synthesised on a membrane, and where each amino acid position of the peptide is mutated to alanine (or glycine if alanine is in the wild type peptide) to evaluate the effect of the amino acid residues in binding. We tested two peptides containing the apparent MIM1-like motif, one from Girdin (Girdin1192 − 1207) and one from the histone-lysine N-methyltransferase SETD1B (SETD1B492 − 507). […] AlphaFold3 (AF3) modelling of the four peptides with the variant MIM1 motif and the MIT domain docked the peptides with high confidence (ipTM scores: HIVEP1_741 − 756: 0.87, Girdin1192 − 1207: 0.85, MLPH481 − 496: 0.82, SETD1B492 − 507: 0.75) at the expected MIM1 binding pocket (Fig. 1D). […] However, the USP8 MIT selection was dominated (more than 94% of NGS counts) by two peptides that lack an apparent MIM1 motif. The two peptides were from the EF-hand calcium-binding domain-containing protein 12 (EFCAB12_1 − 16: […]) and from DBP (DBP116 − 131: […]) (Fig. 1B). […] In comparison to this, the EFCAB12_1 − 16 peptide shares a potential Dx[YF]xxxH[SG] motif with the DBP116 − 131 (Fig. 1B). […] The AF3 model of DBP116 − 131 peptide supports the interaction of D120 of the DBP116 − 131 peptide with the residues K74 and N71 in the MIT domain (Fig. 1G), emphasizing the significance of the aspartic acid at this position. […] Of them, two peptides (SYNE2_853 − 868 and PKNOX1_56 − 71) where placed in the same binding site as the Girdin and DBP peptides with high confidences by AF3 modelling (ipTM 0.92 and 0.74; Supplementary Fig. S3).
Four rounds of phage selections were carried out using the second generation human disorderome library or the constructed deep mutational scanning library. At least three individual replicates were used for each bait protein. 10 µg of GST-tagged proteins or GST control (diluted in PBS from the stock of proteins kept in the purification elution buffer) were immobilized in 100 µL PBS on a 96-well MaxiSorp (Nunc) plate overnight at 4 °C. The plates were incubated with blocking buffer (with 0.5% BSA in PBS) for 1 h at 4 °C followed by washing with 0.05% Tween 20 in PBS four times. The naïve phage library (10^11 CFU) was diluted in 1/5th volume PEG/NaCl (20% PEG-8000, 0.4 M NaCl) and 1X PBS, incubated on ice for 10 min and centrifuged at 10,000 [drawing 3] g for 10 min. The pellet was resuspended in the volume of PBS (100 µL/ well). […]

Row | Sequence | Percentage (%) normalized to highest intensity and corrected for background (USP8 MIT domain [1]) [%] | Percentage (%) (USP8 MIT domain [1]) | other results
1 | AGAALLALLAALCP [EGFR, Epidermal growth factor receptor peptide] | 6 | 6 | –
2 | APLLCLALLPALAA [NOTCH1, Neurogenic locus notch homolog protein 1 peptide] | 2 | 2 | –
3 | APPSLLLLLLAQLV [FZD5, Frizzled-5 peptide] | 24 | 24 | –
4 | DDLSRRFEELKKKT [IST1, IST1 homolog peptide] | 5 | 5 | –
5 | DKEIDLELLQDLME [BIRC6, Baculoviral IAP repeat-containing protein 6 peptide] | 12 | 12 | –
6 | DPSNNFRLHNGRS [CFLAR, CASP8 and FADD-like apoptosis regulator peptide] | 31 | 31 | –
7 | GELLLLSLLLLLEP [PDGFRB, Platelet-derived growth factor receptor beta peptide] | -3.37 | -3 | –
8 | HDSLDSRIEMLLKEQR [SETD1B 496-511, Histone-lysine N-methyltransferase SETD1B peptide, overlapping] | – | – | max_counts (USP8 MIT domain [2]): 7; Confidence (USP8 MIT domain [2]): 2; Counts (USP8 MIT domain [2]): 0.0001221; Promiscuity (USP8 MIT domain [2]): 1; Replicates (USP8 MIT domain [2]): 3; Specificity (USP8 MIT domain [2]): 1
9 | HRRVRTEGKESSSASR [CACNA1E, Voltage-dependent R-type calcium channel subunit alpha-1E peptide 923-938] | – | – | NGS counts (%) (USP8 MIT domain [2]; ProP-PD, human disorderome library, GST-tagged MIT bait, four rounds of selection, percent of NGS counts associated with each peptide, Fig. 1B): 0.87%; max_counts (USP8 MIT domain [2]): 96; Confidence (USP8 MIT domain [2]): 2; Counts (USP8 MIT domain [2]): 0.001177; Promiscuity (USP8 MIT domain [2]): 3; Replicates (USP8 MIT domain [2]): 2; Specificity (USP8 MIT domain [2]): 0.7101
10 | KEPDALTLLAPAAG [HIF1A, Hypoxia-inducible factor 1-alpha peptide] | -0.189 | 0 | –
